Laboratory results reported in US20110046225A1, “Pharmaceutical formulation containing palmitoyl ethanolamide and stearoyl ethanolamide” (VERMONT ITALIA SRL, priority 2008, published 2011).

Legend:
RBL-2H3 cells = assay: inhibition of β-hexosaminidase release in IgE/DNP-stimulated RBL-2H3 mastocyte cells; assay type: cell-based; settings: stimulated RBL-2H3 cells, culture medium; for INHIBITION OF β-HEXOSAMINIDASE RELEASE (% on test): 10 μM
Text: More specifically, a RBL-2H3 mastocyte cell line was used to express high-affinity receptors for the IgE immunoglobulins. The interaction of the antigens with the IgE molecules present on the cell surface stimulates secretion by said cells of the pro-inflammatory contents of their intracytoplasmic granules, amongst which significant quantities of: histamine, leukotrienes, prostaglandins and TNF-alfa. The RBL-2H3 therefore represent an excellent cell module for the study of the mechanisms of exocytosis and release of the inflammatory mediators and of the relative modulation, as the case may be. In particular, measurement of the activity by the β-hexosaminidase enzyme was performed, the release of which correlates positively with the secretion of very strong pro-inflammatory mediators such as histamine and TNF-alfa. As already specified, a RBL-2H3 mastocyte cell line was used to express high-affinity receptors for the IgE immunoglobulins, whilst the assessment of cell vitality was recorded by way of the MTT method. The RBL-2H3 cell culture was started with a density amounting to 20,000 cells/well (96 wells) and incubated with IgE-anti-DNP. After about one hour, the antigen (DNP) was introduced into the culture, then after another 30 minutes the culture medium was harvested. Measurement of the activity by the β-hexosaminidase enzyme was performed on the harvested […], the release of which correlated positively with the secretion of very strong pro-inflammatory mediators such as histamine and TNF-alfa. A reduction of the enzymatic activities in the culture medium signifies minor cell degranulation and thus […]. The molecules according to the patent application herein were solubilised in DMSO and both added in variable concentrations to the cell cultures 1 hour prior to the introduction of the antigen.

receptor GPR55 = receptor GPR55 (Homo sapiens, UniProt Q9Y2T6); settings: Ryberg et al. 2007; cited from earlier work
receptor GPR55, sequence (Q9Y2T6 whole entry): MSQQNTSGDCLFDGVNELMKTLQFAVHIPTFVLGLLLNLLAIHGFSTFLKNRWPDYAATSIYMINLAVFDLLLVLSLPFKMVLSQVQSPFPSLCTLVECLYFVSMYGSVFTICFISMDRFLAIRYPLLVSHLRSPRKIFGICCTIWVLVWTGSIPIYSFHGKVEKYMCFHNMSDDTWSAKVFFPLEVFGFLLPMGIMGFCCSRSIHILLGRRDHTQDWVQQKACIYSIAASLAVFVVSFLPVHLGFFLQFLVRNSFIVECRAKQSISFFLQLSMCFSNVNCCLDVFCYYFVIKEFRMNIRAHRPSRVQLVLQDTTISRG

[1] = U.S. Pat. No. 5,990,170; 5,679,667; 5,506,224; cited from earlier work
[2] = cited from earlier work

Structure (SMILES) | INHIBITION OF β-HEXOSAMINIDASE RELEASE (% on test) (RBL-2H3 cells) [%] | inhibition at 10 µM (RBL-2H3 cells; Rattus norvegicus, read-out: INHIBITION OF β-HEXOSAMINIDASE RELEASE (% on test)) [%] | affinity for GPR55 (receptor GPR55) | anti-inflammatory activity relative to PEA [1] | solubility in aqueous environments [2]
C[C@@H]1C[C@H]2[C@@H]3CCC4=CC(=O)C=C[C@]4(C)[C@@]3(F)[C@@H](O)C[C@]2(C)[C@@]1(O)C(=O)CO [Desametazone, reference compound] | 40.2 |  |  |  | 
CCCCCCCCCCCCCCCC(=O)NCCO [Palmitoyl ethanolamide (PEA), palmitoyl ethanolamide] |  | 23.6 | nano-mole affinity array |  | 
CCCCCCCCCCCCCCCCCC(=O)NCCO [Stearoyl ethanolamide (SEA), Stearoyl ethanolamide] | 25.3 |  |  | much less active than the lower homologue PEA | extremely scarce
CCCCCc1cc(O)c2c(c1)OC(C)(C)[C@@H]1CCC(C)=C[C@@H]21 [THC, delta-9-tetrahydrocannabinol, reference compound] |  |  | nano-mole affinity array |  | 
